PMC5963591, “Bitopic Binding Mode of an M1 Muscarinic Acetylcholine Receptor Agonist Associated with Adverse Clinical Trial Outcomes” (Molecular Pharmacology, 2018)

Legend:
wild-type M1 mAChR = test: Agonist bias analysis, IP1 versus ERK1/2 phosphorylation (operational model); assay type: cell-based, human; details: reference ligand ACh
Source text: (§1) For the analysis, all families of agonist curves at each pathway were globally fitted to the model with the parameters, basal, Em, and n shared between all agonists. For full agonists, the LogKA was constrained to a value of zero, whereas for partial agonists this was directly estimated by the curve fitting procedure; the Log(τ/KA) parameter was estimated as a unique measure of activity for each agonist.

human M1 mAChR [1] = biological target: T1, human M1 mAChR (Homo sapiens, UniProt P11229); test: IP1 accumulation after receptor alkylation with phenoxybenzamine (functional interaction with ACh); details: phenoxybenzamine 3 μM for 30 minutes, CHO Flp-In cells
T1 sequence (P11229 1-460): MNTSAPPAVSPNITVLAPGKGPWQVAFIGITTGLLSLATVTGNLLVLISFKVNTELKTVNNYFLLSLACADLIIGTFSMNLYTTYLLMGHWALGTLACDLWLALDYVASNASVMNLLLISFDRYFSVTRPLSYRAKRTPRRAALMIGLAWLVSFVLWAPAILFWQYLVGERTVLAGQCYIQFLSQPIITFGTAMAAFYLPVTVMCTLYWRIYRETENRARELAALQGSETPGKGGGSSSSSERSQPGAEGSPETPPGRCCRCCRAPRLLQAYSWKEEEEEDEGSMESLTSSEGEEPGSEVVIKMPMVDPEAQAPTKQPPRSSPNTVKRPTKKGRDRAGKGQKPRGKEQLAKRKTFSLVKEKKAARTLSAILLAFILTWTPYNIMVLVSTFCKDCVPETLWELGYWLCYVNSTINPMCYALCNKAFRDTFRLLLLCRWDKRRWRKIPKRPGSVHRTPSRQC

human M1 mAChR [2] = biological target: T1, human M1 mAChR; test: Kinetic [3H]-NMS binding (dissociation) in membranes; parameters: expressed in transfected cells; host or cells: CHO Flp-In; details: compound 10 μM plus atropine 10 μM
Experimental: Reactions were terminated by rapid filtration onto GF/B filter paper (Whatman, Maidstone, UK) and three washes with 3 ml ice-cold 0.9% NaCl using a Brandel harvester (M-24TI; Brandel, Fort Lauderdale, FL). Membrane bound radioactivity was determined by liquid scintillation (Ultima Gold; PerkinElmer) counting.

human M1 mAChR [3] = biological target: T1, human M1 mAChR; test: IP-One (IP1) accumulation assay, CHO Flp-In human M1 cells; assay type: cell-based; parameters: expressed in transfected cells; host or cells: CHO Flp-In
Experimental: Stimulation of IP accumulation was determined using the Cisbio IP-One Gq assay kit per the manufacturer’s instructions. […] CHO Flp-In cells stably expressing the human M1 mAChR were grown to confluence in T75 cell culture flasks at 37°C. Cells were washed with warm phosphate-buffered saline and detached using phosphate-buffered saline with 0.1 M EDTA. Detached cells were centrifuged at 1000g and the cells were resuspended in stimulation buffer.
All IP-One stimulations were terminated by the addition of 3 μl/well IP1-d2 solution, followed by 3 μl/well anti–IP1-cryptate solution and incubation for 1 hour at room temperature with shaking.
Functional concentration-response curves were fitted according to a four-parameter logistic equation (to determine minimum and maximum asymptotes, LogEC50, and slope; GraphPad Prism 6). […] In the absence of antagonist ([B] = 0), this equation becomes the standard four-parameter logistic equation for fitting agonist concentration-response data.

human M1 receptor = biological target: T2, human M1 receptor (Homo sapiens, UniProt P11229); test: ERK1/2 phosphorylation, CHO Flp-In human M1 cells; assay type: cell-based
T2 construct: expressed in transfected cells; host or cells: CHO Flp-In
T2 sequence (P11229 1-460): T1 sequence (P11229 1-460)
Experimental: CHO Flp-In cells stably expressing the human M1 receptor were seeded onto transparent 96-well plates at 20,000 cells/well and grown to confluence. Cells were serum starved overnight prior to the experiment. Prior to the stimulations, cells were washed with 100 μl phosphate-buffered saline and then incubated in serum free F12 medium at 37°C. Cells were stimulated with ligands for 5 minutes at 37°C in a final volume of 200 μl. The stimulations were terminated by rapid aspiration and addition of 50 μl lysis buffer supplemented with blocking reagent per the manufacturer’s instructions, followed by gentle agitation at room temperature for 30 minutes. Subsequently, 16 μl of this lysate was transferred to a 384-well white ProxiPlate (PerkinElmer) and incubated with 4 μl premixed antibody solution for 2 hours at room temperature.
as §1

human M1 mAChR [4] = biological target: T1, human M1 mAChR; details: 20 nM [^3H]-GSK1034702
C57Bl/6J mice = test: Contextual fear conditioning, scopolamine-induced deficit; assay type: in vivo, mouse; details: for shape of the dose response on learning and memory: escalating i.p. doses with scopolamine […]
Experimental: C57Bl/6J male mice (aged 8–12 weeks) were acclimatized to the behavioral testing suite at least 2 hours prior to the test. […] Mice were placed in the conditioning chamber (ANY-maze Fear Conditioning System; Stoelting, Dublin, Ireland); after a 2-minute adaptation period, they received three tone/foot shock pairings where the foot shock (unconditioned stimulus; 2 seconds; 0.4 mA) always co-terminated with a tone (conditioned stimulus; 2.8 kH; 85 dB; 30 seconds). The conditioned stimulus–unconditioned stimulus pairings were separated by 1-minute intervals. After the mice completed training, they remained in the conditioning chamber for 1 minute and were then returned to their home cages. The next day, the mice were placed back in the conditioning chamber, and time spent immobile was recorded for 3 minutes to assess context-dependent learning. Data were analyzed using ANY-maze software (Stoelting).

[5] = Mouse pharmacokinetics, unbound plasma and brain concentrations; assay type: in vivo; details: mice, 30 minutes after i.p. administration
Experimental: Pharmacokinetic analyses were conducted as previously described ([Witkin et al., 2017]). Compounds were administered via intraperitoneal injection (in 5% glucose) 30 minutes prior to blood collection. Mice were anesthetized with 3% isoflurane (2 l/min), and blood was collected by cardiac puncture of the left ventricle. Blood was immediately transferred to EDTA tubes and centrifuged at 1000g for 10 minutes at 4°C; the supernatant was collected and frozen. Brains from each mouse were also dissected and snap-frozen on dry ice.
Brain samples were homogenized in three volumes of methanol/water [1:4 (v/v)] by weight. A 25-μl aliquot of each study sample, calibration standard, and control sample was added to a 96-well plate and mixed with 180 μl acetonitrile/methanol [1:1 (v/v)] containing internal standard. The samples were subsequently centrifuged, and the resulting supernatants were diluted 12.5-fold with methanol/water [1:1 (v/v)] prior to analyzing 10-μl aliquots by liquid chromatography–tandem mass spectrometry as previously described ([Bradley et al., 2017]).

murine prion disease = details: doses that rescued learning and memory, ref Bradley et al., 2017; cited from earlier work
patients with AD = tested on: patients with AD; parameters: method as in Bodick et al., 1997; details: ref Bodick et al., 1997; cited from earlier work
[6] = normalized to reference ligand ACh
[7] = transduction coefficient, wild-type M1 mAChR

## CC(=O)OCC[N+](C)(C)C [ACh, acetylcholine]
wild-type M1 mAChR
  Log Bias Factor IP1 – ERK1/2 ΔΔLog10(τ/KA): 0.0 ± 0.1

## CC(COc1ccccc1)N(CCCl)Cc1ccccc1 (stereo not drawn) [Phenoxybenzamine, phenoxybenzamine, reference compound]
Human M1 mAChR [1]
  reduction of the functional human M1 mAChR population: approximately 80%

## Cc1ccccc1CN1CCC(N2CCC(n3c(=O)[nH]c4ccccc43)CC2)CC1 [TBPB, 1-[1′-(2-methylbenzyl)-1,4′-bipiperidin-4-yl]-1,3-dihydro-2H-benzimidazol-2-one, reference compound]
wild-type M1 mAChR
  Log Bias Factor IP1 – ERK1/2 ΔΔLog10(τ/KA): 1.4 ± 0.2
Human M1 mAChR [2]
  effect on the [^3H]-NMS dissociation rate: no effect
Human M1 mAChR [3]; CHO Flp-In human M1 cells
  IP1 Emax: 55.2 ± 3.1
Human M1 mAChR [3]; [6]
  IP1 Accumulation ΔLog10(τ/KA): 1.1 ± 0.2
Human M1 mAChR [3]; [7]
  IP1 Accumulation Log10(τ/KA): 8.2 ± 0.2
Human M1 receptor; [6]
  ERK1/2 Phosphorylation ΔLog10(τ/KA): −0.3 ± 0.4
Human M1 receptor; [7]
  ERK1/2 Phosphorylation Log10(τ/KA): 6.9 ± 0.4
Human M1 mAChR [4]
  displacement of specific [^3H]-GSK1034702 binding: fully displaced
C57Bl/6J mice
  shape of the dose response on learning and memory: no evidence of a bell-shaped dose response
[5]
  free brain concentration versus dose: could not be increased beyond that observed at 10 mg/kg

## CCCCCCOc1nsnc1C1=CCCN(C)C1 [Xanomeline, xanomeline]
wild-type M1 mAChR
  Log Bias Factor IP1 – ERK1/2 ΔΔLog10(τ/KA): 1.1 ± 0.1
Murine prion disease
  adverse responses: gave adverse responses consistent with the activation of other muscarinic receptor subtypes
C57Bl/6J mice
  shape of the dose response on learning and memory: bell shaped
Patients with AD
  effect on cognitive function: significantly improved cognitive function
[5]
  free brain concentration versus dose: increase linearly with escalating doses

## CN1[C@@H]2C[C@@H](OC(=O)[C@H](CO)c3ccccc3)C[C@H]1[C@@H]1O[C@@H]12 [scopolamine]
C57Bl/6J mice; doses above 1 mg/kg, 30 minutes prior to training
  effect on contextual fear conditioning learning and memory: significant reduction in contextual fear conditioning learning and memory
